Results: US12227769B2 (priority 2018, dated 2025)

Tests used:
[1] = tested on: Rous sarcoma virus, HIV-1, RSV, parainfluenza virus type 3, VSV, measles virus, and reovirus; conditions: shown previously [52, 53, 59]; cited from earlier work
[2] = tested on: rgRSV or rgRSV-G1857A-G1853A; type: cell-based, RSV A2 strain; conditions: 15 μg/ml Cc3Ado; rgRSV and rgRSV-G1853A-G1857A-infected cells; day 3
[3] = tested on: rgRSV or rgRSV-G1857A-G1853A; type: cell-based, RSV A2 strain; conditions: 50 μg/ml Cc3Ado, day 3
[4] = target: T1, Recombinant human RIG-I protein (Homo sapiens, UniProt O95786); assay: Limited trypsin digestion of RIG-I:RNA complexes; type: biochemical; conditions: 2 h trypsin digestion, 2 mM AMP-PNP
T1 construct: trypsin treatment of the full-length RIG-I protein (approximately 110 kDa) yielded a 55-kDa RIG-I fragment; Flag; made in house; host or cells: HEK-293T
T1 sequence (O95786 1-925): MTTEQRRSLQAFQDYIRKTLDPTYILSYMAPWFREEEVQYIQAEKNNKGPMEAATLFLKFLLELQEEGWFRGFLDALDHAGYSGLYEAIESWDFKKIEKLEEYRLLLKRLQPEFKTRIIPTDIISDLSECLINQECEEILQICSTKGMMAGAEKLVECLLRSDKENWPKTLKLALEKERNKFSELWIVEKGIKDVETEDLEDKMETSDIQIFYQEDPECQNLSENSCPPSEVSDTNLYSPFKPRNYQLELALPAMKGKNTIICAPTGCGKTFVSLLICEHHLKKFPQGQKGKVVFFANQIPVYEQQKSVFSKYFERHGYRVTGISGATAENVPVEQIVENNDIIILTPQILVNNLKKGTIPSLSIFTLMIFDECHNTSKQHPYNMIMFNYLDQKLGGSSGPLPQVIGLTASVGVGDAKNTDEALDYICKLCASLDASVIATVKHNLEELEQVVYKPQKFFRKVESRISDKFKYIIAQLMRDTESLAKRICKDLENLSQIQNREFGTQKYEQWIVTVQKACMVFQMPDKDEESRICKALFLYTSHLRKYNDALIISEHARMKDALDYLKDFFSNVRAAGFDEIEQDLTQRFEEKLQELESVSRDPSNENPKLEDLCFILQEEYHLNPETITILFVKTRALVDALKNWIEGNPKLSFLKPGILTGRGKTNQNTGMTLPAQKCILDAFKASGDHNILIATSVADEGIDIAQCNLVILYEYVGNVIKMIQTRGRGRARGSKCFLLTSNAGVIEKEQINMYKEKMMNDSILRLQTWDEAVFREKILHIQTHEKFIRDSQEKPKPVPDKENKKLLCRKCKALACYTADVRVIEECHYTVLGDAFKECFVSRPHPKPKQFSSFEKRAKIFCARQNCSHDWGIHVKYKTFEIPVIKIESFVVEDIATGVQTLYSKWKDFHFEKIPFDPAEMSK

RIG-I = type: cell-based, human

Molecule: Nc1nccc2c1ncn2[C@@H]1O[C@H](CO)[C@@H](O)[C@H]1O [3-deazaadenosine]
- inhibition of virus replication [1]: capable of inhibiting the replication of diverse viruses

Molecule: Carbocyclic 3-deazaadenosine [Cc3Ado]
- effect on RSV spread (GFP) in HEp-2 cells [2]: inhibited rgRSV spread over 3 days
- effect on GFP signal in rgRSV-G1853A-G1857A-infected HAE cells [3]: the GFP signal was further reduced

Molecule: Poly(I.C)
- trypsin-resistant 80-kDa RIG-I fragment [4]: yielded an 80-kDa fragment
- expression of RIG-I in RNA-transfected cells (RIG-I): activated RIG-I expression in a dose-dependent manner
